{"source": "patent US20040191842A1", "about": "“Chemopreventive and therapeutic aspects of polyphenolic compositions and assays” (Medical College of Georgia Research Institute, Inc., priority 2002, published 2004)", "key": {"NHEK [1]": {"tested_on": "NHEK", "assay": "MTT assay (SDH activity), NHEK", "assay_type": "cell-based, human", "from_the_text": "(§1) Succinate dehydrogenase activity assay (MTT assay)."}, "OSC-2 cells [2]": {"tested_on": "OSC-2 cells", "assay": "Intracellular ROS levels (DFDA assay), OSC-2 cells", "assay_type": "cell-based, human", "settings": "5 mM diamide or relatively high H2O2, 60 minutes", "description": "(§2) Measurement of intracellular ROS levels. The ROS assay measures the accumulation of intracellular ROS levels. The non-fluorescent dye DFDA passively diffuses into cells, where the acetates are cleaved by intracellular esterases. […] Thus, values of the fluorescence in the cell cultures are constantly rising in this assay. Cells (1.5×10^4 cells/well) were incubated with Hallam's physiological saline (HPS) containing DFDA (10 μM) in a 96-well microplate for 30 minutes at 37° C. After the incubation, cells were washed three times with HPS and then incubated with HPS containing EGCG (15-200 μM) or diamide (5 mM) for the indicated time periods. The intracellular ROS levels were measured by using a fluorescence plate reader (BIO-TEK FL600, Bio-Tek Instruments, Inc., Winooski, Vt.), at an excitation wavelength of 485 nm and an emission wavelength of 530 nm.\nas §2, with “assay (DFDA assay)” for “assay”, “dye dichlorofluorescein diacetate (DFDA)” for “dye DFDA”, “this assay due to the accumulation of ROS.” for “this assay.”, “EGCG (50-200” for “EGCG (15-200”, “indicated times.” for “indicated time periods.”"}, "OSC-4 cells": {"tested_on": "OSC-4 cells", "assay": "MTT assay (SDH activity), OSC-4 cells", "assay_type": "cell-based, human", "protocol": "MTT [3-(4,5-dimethylthiazol-2-yl)-2,5-diphenyl tetrazolium bromide] assay. This method directly detects the activity of mitochondrial succinate dehydrogenase (SDH). Changes in SDH activity is a measurement of cell viability when stress is introduced in cell culture through chemical or physical means. Cells (1.5×10^4 cells/well) were seeded in a 96-well microplate and treated with the indicated doses of EGCG for 24 hours. After the treatment, the cells in each well were washed with 200 μl of phosphate-buffered saline (PBS), incubated with 100 μl of 2% MTT in a solution of 0.05 M Tris, 0.5 mM MgCl2, 2.5 mM CoCl2, and 0.25 M disodiumn succinate as substrate (Sigma) at 37° C. for 30 minutes. Cells were fixed in situ by the addition of 100 μl of 4% formalin in 0.2 M Tris (pH 7.7), and after a 5 minute incubation at room temperature liquid was removed and the wells were allowed to dry. Each well was rinsed with 200 μl water and cells were solubilized by the addition of 100 μl of 6.35% 0.1 N NaOH in DMSO. The colored formazan product was measured by a Thermo MAX micro plate reader (Molecular Devices Corp., Sunnyvale, Calif.) at a wavelength of 562 nm. Experiments were repeated three times with triplicate samples for each experiment."}, "OSC-2 cells [3]": {"tested_on": "OSC-2 cells", "assay": "MTT assay (mitochondrial SDH activity), OSC2 (OSC-2) cells", "protocol": "This method detects the activity of mitochondrial succinate dehydrogenase (SDH). In a 96-well plate, 1.5×10^4 cells were seeded in each well. After variety of treatments, 100 μl of 2% MTT was added to each well and the plate was incubated at 37° C. for 30 minutes. 100 μl of 0.2 M Tris (pH 7.7) with 4% formalin was added to each well. After incubation at room temperature for 5 minutes, liquid was removed and the wells were allowed to dry. Each well was rinsed with 200 μl water followed by addition of 100 μl DMSO (6.35% 0.1 N NaOH in DMSO) to each well. The coloration was measured by a Thermo MAX microplate reader (Molecular Devices Corp. Sunnyvale, Calif. using wavelengths of 562 nm. Experiments were repeated three times with triplicate samples for each experiment.\nThis method directly detects the activity of mitochondrial succinate dehydrogenase (SDH). Changes in SDH activity is a measurement of cell viability when stress is introduced in cell culture through chemical or physical means. Cells (1.5×10^4 cells/well) were seeded in a 96-well microplate and treated with the indicated doses of EGCG for 24 hours. After the treatment, the cells in each well were washed with 200 μl of phosphate-buffered saline (PBS), incubated with 100 μl of 2% MTT in a solution of 0.05 M Tris, 0.5 mM MgCl2, 2.5 mM CoCl2, and 0.25 M disodiumn succinate as substrate (Sigma) at 37° C. for 30 minutes. Cells were fixed in situ by the addition of 100 μl of 4% formalin in 0.2 M Tris (pH 7.7), and after a 5 minute incubation at room temperature liquid was removed and the wells were allowed to dry. Each well was rinsed with 200 μl water and cells were solubilized by the addition of 100 μl of 6.35% 0.1 N NaOH in DMSO. The colored formazan product was measured by a Thermo MAX micro plate reader (Molecular Devices Corp., Sunnyvale, Calif.) at a wavelength of 562 nm. […]\nThis method directly detects the activity of mitochondrial succinate dehydrogenase (SDH). […] Solubilized colored formazan product was measured using a Thermo MAX microplate reader (Molecular Devices Corp., Sunnyvale, Calif.) at a wavelength of 562 nm."}, "NHEK [4]": {"tested_on": "NHEK", "assay": "Intracellular ROS levels (DFDA assay), NHEK", "assay_type": "cell-based, human", "settings": "5 mM diamide, 1-minute incubation", "description": "Measurement of intracellular ROS levels. The ROS assay measures the accumulation of intracellular ROS levels. The non-fluorescent dye DFDA passively diffuses into cells, where the acetates are cleaved by intracellular esterases. […] Thus, values of the fluorescence in the cell cultures are constantly rising in this assay. […] The intracellular ROS levels were measured by using a fluorescence plate reader (BIO-TEK FL600, Bio-Tek Instruments, Inc., Winooski, Vt.), at an excitation wavelength of 485 nm and an emission wavelength of 530 nm."}, "OSC-2 and OSC-4 cells [5]": {"tested_on": "OSC-2 and OSC-4 cells", "assay": "MTT assay, OSC-2 and OSC-4 cells pretreated with catalase, 3-AT or NAC", "assay_type": "cell-based, human", "from_the_text": "as §1"}, "p57 (KIP2)": {"tested_on": "p57 (KIP2)", "assay_type": "cell-based, human", "settings": "for p57 expression, carcinogen alone: 0.12 μM BaP or 10 μM NNK alone", "description": "Cell treatments. For 24 hours treatments, exponentially growing cells with 40% confluency (to minimize differentiation and spontaneous apoptosis) were either maintained in 50 μM EGCG (2.29 mg/100 ml) or 0.2 mg/ml of GTPPs in tissue culture flasks (25 cm^2). Control flasks contained cells without any treatment. To test whether BaP or NNK interfere with the induction of p57, the human keratinocytes were treated with 0.12 μM BaP, or 10 μM NNK, either alone or in combination with 50 μM EGCG. To examine the time course of p57 induction, cells were treated with 50 μM EGCG and harvested for Western analysis at 30 minutes, 2 hours, 6 hours, and 24 hours. The human keratinocytes were treated when the cell density reached 85-90% confluency (to mimic the epithelium).\nIn a parallel series of experiments, treatment with EGCG was performed with 30 micrograms per milliliter (μg/ml) cycloheximide added to the keratinocyte media 30 minutes prior to the addition of EGCG. The dose-response experiments were performed using EGCG concentrations at 30, 50 100, and 200 μM in the culture media for 24 hours.\nWestern blot analysis. Cells from different treatment groups were lysed in RIPA buffer (1% NP-40, 1% sodium deoxycholate, 0.1% SDS, 0.15 M NaCl, 0.01 M sodium phosphate, pH 7.2, and 1% Trasylol) containing proteinase inhibitors (1 mM PMSF, 1 μg/ml each of aprotinin, leupeptin, and pepstatin). The concentration of protein in each sample was determined using the BioRad DC Protein Assay and spectrophotometry. Fifty micrograms (μg) of protein from each sample and a BioRad molecular weight standard marker were run on a 10% SDS-PAGE, followed by transfer to nitrocellulose membranes. Nonspecific binding to membranes was blocked with 10% nonfat milk. Specific primary polyclonal (rabbit) antibody against p57 and a horse radish peroxidase-conjugated goat anti-rabbit secondary antibody were used in conjunction with the ECL Chemiluminescence Kit and membranes were exposed to radiographic films for detection."}, "caspase-3": {"tested_on": "caspase-3", "assay": "Caspase-3 activity, OSC-2 and OSC-4 cells pretreated with catalase", "assay_type": "cell-based, human", "settings": "200 U/ml catalase, 24 hour", "description": "Caspase-3 activity assay. The caspase-3 apoptosis detection kit (Santa Cruz Biotechnology, Inc., Santa Cruz, Calif.) was used to measure caspase-3 activity. Cells (10^5 cells/well) were plated in triplicate in a 24-well tissue culture plate. […] To each well, 100 μl of 2×reaction buffer was added with 10 mM dithiothreitol. Finally, 5 μl of DEVD-AFC substrate was added to each well containing cell lysates. The reaction mixtures were incubated for 1 hour at 37° C., and caspase-3 activity in each well was measured using a fluorescence microplate reader ([…]luor Plus, Tecan US, Research Triangle Park, N.C.) at a wavelength of 405 nm for excitation and 505 nm for emission."}, "OSC-2 and OSC-4 cells [6]": {"tested_on": "OSC-2 and OSC-4 cells", "assay": "BrdU incorporation, OSC-2 and OSC-4 cells with exogenous catalase", "assay_type": "cell-based, human", "settings": "200 U/ml catalase, 200 μM EGCG, 24 h", "description": "DNA synthesis assay. DNA synthesis was analyzed by a BrdU cell proliferation assay kit (Oncogene Research Products, Boston, Mass.). […] After the treatment, cells were labeled with BrdU for 2 hours at 37° C. and reacted with anti-BrdU antibody. Unbound antibody in each well was removed by rinsing, and horseradish peroxidase-conjugated goat anti-mouse IgG antibody was added to each well. The color reaction to visualize the secondary antibody was carried out according to the protocol provided by the manufacturer."}}, "note": "Entries after “also recorded” stand apart in the source; their conditions may differ."}
{"molecule": "OO", "note": "[H2O2, hydrogen peroxide]", "values": [{"measurement": "SDH activity remained", "setting": "NHEK [1]; 1 mM H2O2, 24 hours", "result": 75, "unit": "%"}, {"measurement": "reduction of SDH activity", "setting": "NHEK [1]; 1 mM H2O2, 24 hours", "result": 25, "unit": "%"}, {"measurement": "ROS accumulated in OSC-2 cells relative to OSC-4 cells", "setting": "OSC-2 cells [2]", "result": "approximately two"}, {"measurement": "SDH activity", "setting": "OSC-4 cells; 100 μM H2O2", "result": "had no significant effect on SDH activity"}, {"measurement": "H2O2 concentration needed to cause […]% reduction of SDH activity", "setting": "OSC-4 cells; 24 hours", "result": 250, "unit": "µM"}, {"measurement": "SDH activity", "setting": "OSC-2 cells [3]; 50 μM H2O2, 24 hour", "result": "had no effect on the SDH activity"}, {"measurement": "H2O2 concentration needed to cause […]% reduction of SDH activity", "setting": "OSC-2 cells [3]; 24 hours", "result": 250, "unit": "µM"}]}
{"molecule": "CN(C)C(=O)/N=N/C(=O)N(C)C", "note": "[diamide, reference compound]", "values": [{"measurement": "ROS accumulated in OSC-2 cells relative to OSC-4 cells", "setting": "OSC-2 cells [2]", "result": "doubled that in OSC-4 cells; also recorded: approximately two"}, {"measurement": "intracellular ROS levels vs endogenous", "setting": "NHEK [4]", "result": "induced ROS"}]}
{"molecule": "CC(=O)N[C@@H](CS)C(=O)O", "note": "[NAC, N-acetyl-L-cysteine]", "values": [{"measurement": "effect of NAC on EGCG-induced cytotoxicity", "setting": "OSC-2 and OSC-4 cells [5]; 10 mM NAC 2 hour pretreatment", "result": "failed to rescue both cell lines from EGCG-induced cytotoxicity"}, {"measurement": "effect of NAC on H2O2 cytotoxicity", "setting": "OSC-2 and OSC-4 cells [5]; 10 mM NAC 2 hour pretreatment, H2O2 250 and 500 μM", "result": "significantly inhibited the cytotoxic effect of H2O2"}]}
{"molecule": "c1ccc2c(c1)cc1ccc3cccc4ccc2c1c34", "note": "[BaP, reference compound]", "values": [{"measurement": "p57 expression, carcinogen alone", "setting": "p57 (KIP2)", "result": "did not alter p57 expression"}]}
{"molecule": "C[C@@H]1C[C@@H]([C@H](O)CC2CC(=O)NC(=O)C2)C(=O)[C@@H](C)C1", "note": "[cycloheximide, reference compound]", "values": [{"measurement": "p57 protein levels with cycloheximide", "setting": "p57 (KIP2); 30 μg/ml cycloheximide plus 50 μM EGCG", "result": "gradual decline in p57 protein levels"}]}
{"molecule": "catalase", "values": [{"measurement": "effect of exogenous catalase on EGCG-induced caspase 3 activation", "setting": "caspase-3", "result": "partially inhibited EGCG-induced caspase 3 activation"}, {"measurement": "effect of exogenous catalase on EGCG-induced SDH reduction in OSC-4 cells", "setting": "OSC-2 and OSC-4 cells [5]; 200 U/ml catalase, 200 μM EGCG", "result": "partially reversed the effects of 200 μM EGCG"}, {"measurement": "effect of exogenous catalase on EGCG-induced SDH reduction", "setting": "OSC-2 and OSC-4 cells [5]; 200 U/ml catalase, 200 μM EGCG, 24 h", "result": "had no effect on this reduction"}, {"measurement": "effect of exogenous catalase on BrdU incorporation with EGCG", "setting": "OSC-2 and OSC-4 cells [6]", "result": "had no effect on the rates of BrdU incorporation"}]}
{"molecule": "Nc1nc[nH]n1", "note": "[3-AT, 3-amino-1,2,4-triazole]", "values": [{"measurement": "susceptibility of NHEK to EGCG cytotoxicity after 3-AT", "setting": "NHEK [1]; pretreatment with 3-AT", "result": "did not become susceptible to EGCG cytotoxicity"}, {"measurement": "effect of 3-AT on EGCG-induced decline of SDH activity", "setting": "OSC-2 and OSC-4 cells [5]; 30 μM 3-AT 2 hours, 200 μM EGCG", "result": "had no significant effect on the decline of mitochondrial SDH activity"}]}
{"molecule": "CN(CCCC(=O)c1cccnc1)N=O", "note": "[NNK, reference compound]", "values": [{"measurement": "p57 expression, carcinogen alone", "setting": "p57 (KIP2)", "result": "did not alter p57 expression"}]}
